The results in this text go back to patent US20240109873A1, “ANTAGONISTS OF THE MUSCARINIC ACETYLCHOLINE RECEPTOR M4” (Vanderbilt University, priority 2020, published 2024).

This experiment concerns the target T1, human mAChR M4 (Homo sapiens, UniProt P08173).
T1 construct: expressed in transfected cells; host or cells: CHO-K1 (ATCC), co-transfected with chimeric G protein Gqi5
T1 sequence (P08173 1-479): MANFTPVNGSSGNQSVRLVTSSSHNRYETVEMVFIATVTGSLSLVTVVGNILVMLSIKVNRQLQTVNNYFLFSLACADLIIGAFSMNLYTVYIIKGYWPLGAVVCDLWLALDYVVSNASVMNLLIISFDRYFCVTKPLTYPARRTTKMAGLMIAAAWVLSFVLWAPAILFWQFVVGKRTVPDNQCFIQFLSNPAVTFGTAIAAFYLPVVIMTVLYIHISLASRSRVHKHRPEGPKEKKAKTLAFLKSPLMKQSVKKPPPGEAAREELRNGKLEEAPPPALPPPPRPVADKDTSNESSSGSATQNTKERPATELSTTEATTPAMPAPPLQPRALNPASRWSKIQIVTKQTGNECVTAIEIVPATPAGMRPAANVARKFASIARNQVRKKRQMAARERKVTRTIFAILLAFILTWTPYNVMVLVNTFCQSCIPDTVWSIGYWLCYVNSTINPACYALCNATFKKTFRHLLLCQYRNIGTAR
The experiment can be described thus: mAChR M4 cell-based functional assay (calcium flux, antagonism of EC80 acetylcholine response, M4/Gqi5/CHO-K1 cells). To be noted: for IC50: decrease of the response elicited by an EC80 concentration of acetylcholine, CHO-K1 cells, Gqi5. Summed up: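 CHO-K1 cells stably expressing human M4 with chimeric Gqi5, loaded with Fluo-4 AM; calcium flux read on FDSS. Compounds (10-point, 1:3 curves) added first, then EC20 acetylcholine at 143 s and EC80 at 268 s. IC50 from decrease of EC80 acetylcholine response, four-parameter logistic fit.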

As for `[2H]C([2H])([C@H]1CCOC(C)(C)C1)N1C[C@H]2C[C@H](Nc3ccc(-c4cccnc4C(F)(F)F)nn3)C[C@H]2C1` (single isomer, unassigned) [Compound 61], the half-maximal inhibitory concentration (IC50) is 3.1 nM.

Take `[2H]C([2H])([C@@H]1CCOC(C)(C)C1)N1C[C@H]2C[C@H](Nc3ccc(-c4cccnc4C(F)(F)F)nn3)C[C@H]2C1` [Compound 62, (3aR,5s,6aS)-2-(((R)-2,2-dimethyltetrahydro-2H-pyran-4-yl)methyl-d2)-N-(6-(2-(trifluoromethyl)pyridin-3-yl)pyridazin-3-yl)octahydrocyclopenta[c]pyrrol-5-amine]: the 50% inhibitory concentration (IC50) was determined as 1.1 nM. Also, the remaining activity at 30 µM (CHO-K1, % ACh maximum at 30 μM, read-out: Human M4 Emin) was found to be 4%.
